How the values were obtained:
[1] = system: endogenous adenosine receptors (A1 purinergic receptors); assay: Gαi bONE-GO kinetic BRET in primary mouse cortical astroglial cells; type: cell-based; details: lentiviral Gαi bONE-GO, N=3
GABABR = details: HEK293T cells expressing GABABR, GINIP-Nluc and YFP-CAAX
DOR = details: cited from earlier work
Gαi = Gαi (UniProt P08753); details: cited from earlier work
Gαi, sequence (P08753 2-354): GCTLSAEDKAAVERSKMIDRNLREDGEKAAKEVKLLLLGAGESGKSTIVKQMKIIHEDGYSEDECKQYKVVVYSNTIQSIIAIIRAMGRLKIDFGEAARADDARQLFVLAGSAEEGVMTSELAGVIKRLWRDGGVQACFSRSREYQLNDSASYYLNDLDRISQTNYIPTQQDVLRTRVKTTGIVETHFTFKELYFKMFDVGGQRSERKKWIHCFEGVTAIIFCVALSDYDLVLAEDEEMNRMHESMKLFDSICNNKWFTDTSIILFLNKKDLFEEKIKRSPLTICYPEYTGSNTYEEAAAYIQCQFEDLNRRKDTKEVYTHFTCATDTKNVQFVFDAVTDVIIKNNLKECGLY

GINIP, sequence (Q9UPV7 2-400): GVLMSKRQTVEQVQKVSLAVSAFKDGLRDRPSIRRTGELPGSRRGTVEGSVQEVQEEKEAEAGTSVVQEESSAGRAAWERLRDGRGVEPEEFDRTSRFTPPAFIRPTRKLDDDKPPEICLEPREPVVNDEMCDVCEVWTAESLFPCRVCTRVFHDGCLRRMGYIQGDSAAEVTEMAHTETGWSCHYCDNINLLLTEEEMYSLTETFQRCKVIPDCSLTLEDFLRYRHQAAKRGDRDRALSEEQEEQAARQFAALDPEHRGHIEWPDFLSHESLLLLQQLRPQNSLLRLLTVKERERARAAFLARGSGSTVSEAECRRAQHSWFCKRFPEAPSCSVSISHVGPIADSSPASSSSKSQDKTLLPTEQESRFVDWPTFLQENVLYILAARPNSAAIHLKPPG

Nc1ncnc2c1ncn2[C@@H]1O[C@H](CO)[C@@H](O)[C@H]1O [adenosine]
BRET response (endogenous Gαi activation) to adenosine [1]: robust and concentration-dependent responses

CGP54626
reversal of the GABA-induced BRET response by antagonist (GABABR): rapidly reverted

Endomorphin-1
DOR activity according to the source reference of the IUPHAR annotation (DOR): inactive | agonist efficacy annotation for DOR in the IUPHAR database (DOR): full agonist

Endomorphin-2
agonist efficacy annotation for DOR in the IUPHAR database (DOR): lack of annotation

GINIP (from UniProt Q9UPV7)
Kd (Gαi): 65 nM

Reference: article PMC12077488 (Science signaling, 2025)
